Data reported in patent US8952024B2, “Herbicidal pyrimidone derivatives” (E I du Pont de Nemours and Company, priority 2009, dated 2015).

Tests used:
Experiment in all cases: Test B pre-/postemergence plant response
Format in all cases: in vivo
[1] = tested on: yellow nutsedge (Cyperus esculentus)
Procedure, shortened: (§1)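 Visual ratings on a 0–100 scale (100 = complete control) were made versus untreated controls 13–15 days after treatment in a greenhouse. Compounds in surfactant-containing non-phytotoxic solvent were applied preemergence to seeds in loam–sand blend or postemergence to 1- to 4-leaf plants (2–18 cm).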

[2] = tested on: Surinam grass (Brachiaria decumbens)
Procedure, shortened: as §1

[3] = tested on: johnsongrass (Sorghum halepense)
Procedure, shortened: as §1

[4] = tested on: downy bromegrass (Bromus tectorum)
Procedure, shortened: as §1

[5] = tested on: soybean (Glycine max)
Procedure, shortened: as §1

[6] = tested on: large crabgrass (Digitaria sanguinalis)
Procedure, shortened: as §1

[7] = tested on: lambsquarters (Chenopodium album)
Procedure, shortened: as §1

[8] = tested on: pigweed (Amaranthus retroflexus)
Procedure, shortened: as §1

[9] = tested on: blackgrass (Alopecurus myosuroides)
Procedure, shortened: as §1

[10] = tested on: goosegrass (Eleusine indica)
Procedure, shortened: as §1

[11] = tested on: corn (Zea mays)
Procedure, shortened: as §1

[12] = tested on: woolly cupgrass (Eriochloa villosa)
Procedure, shortened: as §1

[13] = tested on: wild oat (Avena fatua)
Procedure, shortened: as §1

[14] = tested on: velvetleaf (Abutilon theophrasti)
Procedure, shortened: as §1

[15] = tested on: green foxtail (Setaria viridis)
Procedure, shortened: as §1

[16] = tested on: kochia (Kochia scoparia)
Procedure, shortened: as §1

[17] = tested on: morningglory (Ipomoea coccinea)
Procedure, shortened: as §1

[18] = Postemergence, 31 g ai/ha, 0 to 100 scale (0 no effect, 100 complete control)
[19] = Postemergence, 125 g ai/ha, scale 0 (no effect) to 100 (complete control), 13 to 15 days
[20] = Postemergence, 250 g ai/ha, scale 0 to 100 (0 no effect, 100 complete control), 13 to 15 days
[21] = Postemergence, 62 g ai/ha, scale 0 to 100 (0 no effect, 100 complete control)
[22] = Preemergence, 31 g ai/ha, scale 0 to 100 (0 no effect, 100 complete control)
[23] = Preemergence, 62 g ai/ha, scale 0 to 100, 0 no effect, 100 complete control
[24] = Preemergence, 125 g ai/ha, scale 0 to 100, 0 no effect, 100 complete control
[25] = Preemergence, 250 g ai/ha, 0 to 100 scale

COCCCn1c(-c2cc(F)cc(F)c2)ncc(C(=O)C2=C(O)C3CCC(C3)C2=O)c1=O (stereo not shown) [Compound 244] was tested, and the “Plant response rating, Nutsedge, Yellow” value [1, 18] was 45, the “Plant response rating, Nutsedge, Yellow” value [1, 19] was 65 and the “Plant response rating, Nutsedge, Yellow” value [1, 20] was 75. The “Plant response rating, Nutsedge, Yellow” value [1, 21] was 50, the “Plant response rating, Nutsedge, Yellow” value [1, 22] was 20 and the “Plant response rating, Nutsedge, Yellow” value [1, 23] was 60. The “Plant response rating, Nutsedge, Yellow” value [1, 24] was 80, the “Nutsedge, Yellow plant response rating” value [1, 25] was 95 and the “Plant response rating, Surinam Grass” value [2, 18] was 90. For the same compound, the “Plant response rating, Surinam Grass” value [2, 19] was 100, the “Plant response rating, Surinam Grass” value [2, 20] was 100 and the “Plant response rating, Surinam Grass” value [2, 21] was 95. The “Plant response rating, Surinam Grass” value [2, 22] was 75, the “Plant response rating, Surinam Grass” value [2, 23] was 100 and the “Plant response rating, Surinam Grass” value [2, 24] was 100. The “Surinam Grass plant response rating” value [2, 25] was 100, the “Plant response rating, Johnsongrass” value [3, 18] was 85 and the “Plant response rating, Johnsongrass” value [3, 19] was 100. The “Plant response rating, Johnsongrass” value [3, 20] was 100, the “Plant response rating, Johnsongrass” value [3, 21] was 95 and the “Plant response rating, Johnsongrass” value [3, 22] was 70. The “Plant response rating, Johnsongrass” value [3, 23] was 85, the “Plant response rating, Johnsongrass” value [3, 24] was 100 and the “Johnsongrass plant response rating” value [3, 25] was 100. The “Plant response rating, Bromegrass, Downy” value [4, 18] was 40, the “Plant response rating, Bromegrass, Downy” value [4, 19] was 75 and the “Plant response rating, Bromegrass, Downy” value [4, 20] was 80. For the same compound, the “Plant response rating, Bromegrass, Downy” value [4, 21] was 50, the “Plant response rating, Bromegrass, Downy” value [4, 22] was 0 and the “Plant response rating, Bromegrass, Downy” value [4, 23] was 0. For the same compound, the “Plant response rating, Bromegrass, Downy” value [4, 24] was 5, the “Bromegrass, Downy plant response rating” value [4, 25] was 30 and the “Plant response rating, Soybean” value [5, 18] was 85. The “Plant response rating, Soybean” value [5, 19] was 100, the “Plant response rating, Soybean” value [5, 20] was 100 and the “Plant response rating, Soybean” value [5, 21] was 100. For the same compound, the “Plant response rating, Soybean” value [5, 22] was 70, the “Plant response rating, Soybean” value [5, 23] was 80 and the “Plant response rating, Soybean” value [5, 24] was 90. For the same compound, the “Soybean plant response rating” value [5, 25] was 95, the “Plant response rating, Crabgrass, Large” value [6, 18] was 80 and the “Plant response rating, Crabgrass, Large” value [6, 19] was 100. For the same compound, the “Plant response rating, Crabgrass, Large” value [6, 20] was 100, the “Plant response rating, Crabgrass, Large” value [6, 21] was 100 and the “Plant response rating, Crabgrass, Large” value [6, 22] was 98. The “Plant response rating, Crabgrass, Large” value [6, 23] was 100, the “Plant response rating, Crabgrass, Large” value [6, 24] was 100 and the “Crabgrass, Large plant response rating” value [6, 25] was 100. For the same compound, the “Plant response rating, Lambsquarters” value [7, 18] was 100, the “Plant response rating, Lambsquarters” value [7, 19] was 100 and the “Plant response rating, Lambsquarters” value [7, 20] was 100. For the same compound, the “Plant response rating, Lambsquarters” value [7, 21] was 100, the “Plant response rating, Lambsquarters” value [7, 22] was 100 and the “Plant response rating, Lambsquarters” value [7, 23] was 100. For the same compound, the “Plant response rating, Lambsquarters” value [7, 24] was 100, the “Lambsquarters plant response rating” value [7, 25] was 100 and the “Plant response rating, Pigweed” value [8, 18] was 95. For the same compound, the “Plant response rating, Pigweed” value [8, 19] was 100, the “Plant response rating, Pigweed” value [8, 20] was 100 and the “Plant response rating, Pigweed” value [8, 21] was 100. For the same compound, the “Plant response rating, Pigweed” value [8, 22] was 100, the “Plant response rating, Pigweed” value [8, 23] was 100 and the “Plant response rating, Pigweed” value [8, 24] was 100. For the same compound, the “Pigweed plant response rating” value [8, 25] was 100, the “Plant response rating, Blackgrass” value [9, 18] was 50 and the “Plant response rating, Blackgrass” value [9, 19] was 65. For the same compound, the “Plant response rating, Blackgrass” value [9, 20] was 85, the “Plant response rating, Blackgrass” value [9, 21] was 60 and the “Plant response rating, Blackgrass” value [9, 22] was 35. For the same compound, the “Plant response rating, Blackgrass” value [9, 23] was 35, the “Plant response rating, Blackgrass” value [9, 24] was 60 and the “Blackgrass plant response rating” value [9, 25] was 70. The “Plant response rating, Goosegrass” value [10, 18] was 85, the “Plant response rating, Goosegrass” value [10, 19] was 98 and the “Plant response rating, Goosegrass” value [10, 20] was 98. The “Plant response rating, Goosegrass” value [10, 21] was 95, the “Plant response rating, Goosegrass” value [10, 22] was 98 and the “Plant response rating, Goosegrass” value [10, 23] was 100. The “Plant response rating, Goosegrass” value [10, 24] was 100, the “Goosegrass plant response rating” value [10, 25] was 100 and the “Plant response rating, Corn” value [11, 18] was 85. The “Plant response rating, Corn” value [11, 19] was 95, the “Plant response rating, Corn” value [11, 20] was 100 and the “Plant response rating, Corn” value [11, 21] was 90. The “Plant response rating, Corn” value [11, 22] was 5, the “Plant response rating, Corn” value [11, 23] was 25 and the “Plant response rating, Corn” value [11, 24] was 60. For the same compound, the “Corn plant response rating” value [11, 25] was 85, the “Plant response rating, Cupgrass, Woolly” value [12, 18] was 100 and the “Plant response rating, Cupgrass, Woolly” value [12, 19] was 100. For the same compound, the “Plant response rating, Cupgrass, Woolly” value [12, 20] was 100, the “Plant response rating, Cupgrass, Woolly” value [12, 21] was 100 and the “Plant response rating, Cupgrass, Woolly” value [12, 22] was 45. For the same compound, the “Plant response rating, Cupgrass, Woolly” value [12, 23] was 55, the “Plant response rating, Cupgrass, Woolly” value [12, 24] was 95 and the “Cupgrass, Woolly plant response rating” value [12, 25] was 100. The “Plant response rating, Oat, Wild” value [13, 18] was 50, the “Plant response rating, Oat, Wild” value [13, 19] was 95 and the “Plant response rating, Oat, Wild” value [13, 20] was 98. The “Plant response rating, Oat, Wild” value [13, 21] was 70, the “Plant response rating, Oat, Wild” value [13, 22] was 0 and the “Plant response rating, Oat, Wild” value [13, 23] was 5. The “Plant response rating, Oat, Wild” value [13, 24] was 10, the “Oat, Wild plant response rating” value [13, 25] was 40 and the “Plant response rating, Velvetleaf” value [14, 18] was 100. For the same compound, the “Plant response rating, Velvetleaf” value [14, 19] was 100, the “Plant response rating, Velvetleaf” value [14, 20] was 100 and the “Plant response rating, Velvetleaf” value [14, 21] was 100. The “Plant response rating, Velvetleaf” value [14, 22] was 100, the “Plant response rating, Velvetleaf” value [14, 23] was 100 and the “Plant response rating, Velvetleaf” value [14, 24] was 100. For the same compound, the “Velvetleaf plant response rating” value [14, 25] was 100, the “Plant response rating, Foxtail, Green” value [15, 18] was 85 and the “Plant response rating, Foxtail, Green” value [15, 19] was 98. The “Plant response rating, Foxtail, Green” value [15, 20] was 100, the “Plant response rating, Foxtail, Green” value [15, 21] was 98 and the “Plant response rating, Foxtail, Green” value [15, 22] was 0. For the same compound, the “Plant response rating, Foxtail, Green” value [15, 23] was 45, the “Plant response rating, Foxtail, Green” value [15, 24] was 90 and the “Foxtail, Green plant response rating” value [15, 25] was 90. The “Plant response rating, Kochia” value [16, 18] was 85, the “Plant response rating, Kochia” value [16, 19] was 100 and the “Plant response rating, Kochia” value [16, 20] was 100. The “Plant response rating, Kochia” value [16, 21] was 90, the “Plant response rating, Kochia” value [16, 22] was 85 and the “Plant response rating, Kochia” value [16, 23] was 90. For the same compound, the “Plant response rating, Kochia” value [16, 24] was 95, the “Kochia plant response rating” value [16, 25] was 100 and the “Plant response rating, Morningglory” value [17, 18] was 90. The “Plant response rating, Morningglory” value [17, 19] was 100, the “Plant response rating, Morningglory” value [17, 20] was 100 and the “Plant response rating, Morningglory” value [17, 21] was 95. The “Plant response rating, Morningglory” value [17, 22] was 85, the “Plant response rating, Morningglory” value [17, 23] was 90 and the “Plant response rating, Morningglory” value [17, 24] was 98. The “Morningglory plant response rating” value [17, 25] was 100.
